# Measurements reported in paper PMC5712521, “Dendrogenin A drives LXR to trigger lethal autophagy in cancers” (Nature Communications, 2017).
# Key:
# SKMEL-28 cells = experiment: Clonogenicity (colony formation) inhibition; type: cell-based; conditions: Homo sapiens, SK-MEL-28; SKMEL-28 (H); 72 h; read-out: Clono IC50
# Source text: (§1) Supplementary Fig. 1. a DDA inhibited m elanom a colony form ation. Melanom a cells were […]
# (§2) a 0.5% solution of crystal violet in water and analyzed by microscopy. Images are representative of 5 independent experiments. b Evaluation of DDA-induced cytotoxicity (cytotox) and clonogenicity (clono) inhibition in a subset of human (H) and mouse (M) m elanom a cell lines. T he BRaf status in m elanom a cells lines is shown. […]
# B16F10 cells = experiment: Clonogenicity (colony formation) inhibition; type: cell-based; conditions: Mus musculus, B16-F10; B16F10 (M); 72 h; read-out: Clono IC50
# Source text: as §1, §2
# [1] = molecular target: T1, human liver-X-receptor LXRβ (Homo sapiens, UniProt P55055); experiment: LXRE-luciferase gene reporter assay in HEK293T, LXRβ; type: cell-based; conditions: LXRβ; 10 µM 22(R)HC; read-out: IC50, inhibition of LXR-dependent luciferase activity stimulated by 22(R)HC
# T1 construct: expressed in transfected cells; host or cells: HEK293T
# Source text: HEK293T were used for luciferase assays. Cells were transfected using the PolyEthylenImine (PEI) method with human retinoid-X receptor (RXRγ) and human liver-X-receptors (LXRα or LXRβ) with LXRE-Luc; RXRγ and human farnesoid X receptor (FXR) with EcRE-Luc; RXRγ and human steroid and xenobiotic X receptor (SXR) with DR4-Luc; RXRγ and human peroxisome proliferator activated receptors (PPARα, or PPARγ) with PPRE-Luc; RXRγ and human retinoic acid receptor (RARα) with DR1-Luc; human AHR and human ARNT with a DRE-Luc; human vitamin D receptor (VDR) with VDRE-Luc. Cells were transfected with plasmids encoding human glucocorticoid receptor (GR), progesterone receptor (PR), or androgen receptor (AR) with MMTV-Luc; or estrogen receptors (ERα and ERβ) with an ERE-Luc. The day after transfection with the luciferase reporter gene construct, cells were seeded in 12-well plates (50,000 cells per well). […] Luciferase activity was measured using the luciferase assay reagent (Promega), according to the manufacturer’s instructions. Protein concentrations were measured using the Bradford method to normalize luciferase activities. For each condition, luciferase activity was calculated from the data of three independent wells.
# WM115 cells = experiment: Clonogenicity inhibition; type: cell-based; conditions: Homo sapiens, WM-115; WM115 (H); 72 h; read-out: Clono IC50
# Source text: as §1, §2
# SKMEL-2 cells = experiment: Clonogenicity inhibition; type: cell-based; conditions: Homo sapiens, SK-MEL-2; SKMEL-2 (H); 72 h; read-out: Clono IC50
# Source text: as §1, §2
# A375 cells = experiment: Clonogenicity inhibition; type: cell-based; conditions: Homo sapiens, A-375; A375 (H); 72 h; read-out: Clono IC50
# Source text: as §1, §2
# WM35 cells = experiment: Clonogenicity inhibition; type: cell-based; conditions: Homo sapiens; WM35 (H); 72 h; read-out: Clono IC50
# Source text: as §1, §2
# [2] = molecular target: T2, human liver-X-receptor LXRα (Homo sapiens, UniProt Q13133); experiment: LXRE-luciferase gene reporter assay in HEK293T, LXRα; type: cell-based; conditions: LXRα; 10 µM 22(R)HC; read-out: IC50, inhibition of LXR-dependent luciferase activity stimulated by 22(R)HC
# T2 construct: expressed in transfected cells; host or cells: HEK293T
# T2 sequence (Q13133 1-447): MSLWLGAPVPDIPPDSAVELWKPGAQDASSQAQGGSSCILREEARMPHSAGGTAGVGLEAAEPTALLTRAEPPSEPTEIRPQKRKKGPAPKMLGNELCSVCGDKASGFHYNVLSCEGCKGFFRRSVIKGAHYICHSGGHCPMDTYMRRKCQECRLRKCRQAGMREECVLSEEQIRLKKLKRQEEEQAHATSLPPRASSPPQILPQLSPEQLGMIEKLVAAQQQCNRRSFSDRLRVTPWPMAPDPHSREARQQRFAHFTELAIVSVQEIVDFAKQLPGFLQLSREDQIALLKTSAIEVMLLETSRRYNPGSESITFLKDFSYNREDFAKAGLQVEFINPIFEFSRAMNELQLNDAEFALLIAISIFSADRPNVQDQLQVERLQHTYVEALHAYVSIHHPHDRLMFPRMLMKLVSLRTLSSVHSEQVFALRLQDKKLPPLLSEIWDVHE
# T2 sequence (P48443 1-463 partner): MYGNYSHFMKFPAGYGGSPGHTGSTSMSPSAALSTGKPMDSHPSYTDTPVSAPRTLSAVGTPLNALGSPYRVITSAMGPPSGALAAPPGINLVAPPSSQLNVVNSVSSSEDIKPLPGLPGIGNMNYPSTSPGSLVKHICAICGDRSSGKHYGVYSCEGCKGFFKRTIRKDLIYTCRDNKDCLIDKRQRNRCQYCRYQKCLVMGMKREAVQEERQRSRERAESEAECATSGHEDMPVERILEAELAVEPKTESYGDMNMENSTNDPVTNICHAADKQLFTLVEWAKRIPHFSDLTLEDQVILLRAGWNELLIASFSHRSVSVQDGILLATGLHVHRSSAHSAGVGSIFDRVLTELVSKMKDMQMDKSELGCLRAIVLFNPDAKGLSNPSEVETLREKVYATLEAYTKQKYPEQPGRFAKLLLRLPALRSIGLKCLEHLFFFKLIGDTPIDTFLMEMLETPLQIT
# Source text: HEK293T were used for luciferase assays. Cells were transfected using the PolyEthylenImine (PEI) method with human retinoid-X receptor (RXRγ) and human liver-X-receptors (LXRα or LXRβ) with LXRE-Luc; RXRγ and human farnesoid X receptor (FXR) with EcRE-Luc; RXRγ and human steroid and xenobiotic X receptor (SXR) with DR4-Luc; RXRγ and human peroxisome proliferator activated receptors (PPARα, or PPARγ) with PPRE-Luc; RXRγ and human retinoic acid receptor (RARα) with DR1-Luc; human AHR and human ARNT with a DRE-Luc; human vitamin D receptor (VDR) with VDRE-Luc. Cells were transfected with plasmids encoding human glucocorticoid receptor (GR), progesterone receptor (PR), or androgen receptor (AR) with MMTV-Luc; or estrogen receptors (ERα and ERβ) with an ERE-Luc. The day after transfection with the luciferase reporter gene construct, cells were seeded in 12-well plates (50,000 cells per well). After 6 h, cells were then treated with the following ligands dissolved in ethanol: 10 nM estradiol (E2) for ERα and ERβ; 10 nM R1881 for AR; 10 nM R5020 for PR; 10 nM dexamethasone for GR; 10 µM fenofibrate for PPARα; 100 nM rosiglitazone (BRL 49653) for PPARγ; 100 nM cis-retinoic acid (cRA) for RAR; 10 nM dioxine for AHR, 10 µM rifampicine for SXR and 10 µM 22(R) hydroxycholesterol (22(R)HC) for LXRα and LXRβ. At the end of each treatment, cells were lysed in 100 μl lysis buffer (Promega). Luciferase activity was measured using the luciferase assay reagent (Promega), according to the manufacturer’s instructions. Protein concentrations were measured using the Bradford method to normalize luciferase activities. For each condition, luciferase activity was calculated from the data of three independent wells.
# SKMEL-28 tumors = experiment: SKMEL-28 melanoma xenograft; type: in vivo, mice; conditions: human SKMEL-28; i.p. 20 mg/kg/day
# Protocol: Exponentially growing cells were harvested, washed twice in PBS then resuspended in PBS. SKMEL-28, shSKMEL-28 clones (5 × 10^6 cells) and B16F10 (3 × 10^5) cells were injected subcutaneously (s.c.) into the flank of nude mice. HL60, KG1 and shKG1-clones (5 × 10^6) were inoculated s.c. into the flanks of NOD/SCID mice. When tumors were palpable, animals (n = 10–20 mice per group, as indicated) were randomized to receive either DDA (20 mg/kg) intraperitoneally (i.p.) or 40 mg/kg by oral gavage (p.o), once a day, or vehicle solvent for the indicated time. Animals were examined daily and body weights were measured twice a week. In all experiments, tumor volume was determined by direct measurement with a caliper and was calculated using the formula (width^2 × length)/2. At the end of experiments, mice were sacrificed and tumors were excised and divided for intra-tumoral DDA quantification, immunoblotting, or immunohistochemistry analyses.
# T1 sequence (P55055 whole entry, one chain of several): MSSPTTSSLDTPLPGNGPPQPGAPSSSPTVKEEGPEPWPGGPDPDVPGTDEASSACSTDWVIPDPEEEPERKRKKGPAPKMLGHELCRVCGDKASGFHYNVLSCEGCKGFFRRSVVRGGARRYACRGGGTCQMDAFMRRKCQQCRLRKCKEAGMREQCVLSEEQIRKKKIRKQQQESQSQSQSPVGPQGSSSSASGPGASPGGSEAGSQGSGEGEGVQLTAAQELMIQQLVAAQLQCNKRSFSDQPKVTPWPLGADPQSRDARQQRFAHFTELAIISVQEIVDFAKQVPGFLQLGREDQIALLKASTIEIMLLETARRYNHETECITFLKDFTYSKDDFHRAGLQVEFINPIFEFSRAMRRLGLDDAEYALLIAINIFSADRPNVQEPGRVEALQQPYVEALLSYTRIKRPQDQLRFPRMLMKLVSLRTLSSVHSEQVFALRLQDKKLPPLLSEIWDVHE
structure (smiles),measurement,setting,value
"CC(C)CCC[C@@H](C)[C@H]1CC[C@H]2[C@@H]3C[C@@H](NCCc4cnc[nH]4)[C@@]4(O)C[C@@H](O)CC[C@]4(C)[C@H]3CC[C@]12C [DDA, Dendrogenin A]",IC50,SKMEL-28 cells,1400 ± 600 nM
same,IC50,B16F10 cells,1.2e-06 ± 3e-07 M
same,IC50,[1],76 ± 12 nM
same,IC50,WM115 cells,1500 ± 300 nM
same,IC50,SKMEL-2 cells,1400 ± 400 nM
same,IC50,A375 cells,1500 ± 300 nM
same,IC50,WM35 cells,1400 ± 200 nM
same,IC50,[2],362 ± 52 nM
same,tumor growth,SKMEL-28 tumors,significantly reduced the growth
